The target of assay [1] is T1, K-Ras G12C (Homo sapiens, UniProt P01116, G12C). In words: K-Ras G12C, SOS1, Raf RBD HTRF assay for inhibition of GTP exchange. In kind it is biochemical. More on the design: K-Ras G12C (residues 2-188) and SOS1 (residues 564-1049) had N-terminal 6-His; made in house; host or cells: E. coli. Conditions: 18 hours preincubation with K-Ras G12C at room temperature; SOS1-mediated GTP exchange. As for the experimental part: K-Ras G12C, SOS1, Raf RBD Homogeneous Time Resolved Fluorescence (HTRF) Assay for Inhibition of GTP Exchange
After 18 hours at room temperature, the SOS1 GTP exchange factor (1.67 nM during exchange, 1.25 nM final) was added to initiate nucleotide exchange to GTP (200 μM during exchange, 150 μM final). The level of GTP exchange was assessed by addition of a Ras binding domain derived from C-Raf and the HTRF detection antibodies Tb-anti-FLAG and D2-anti-his (Cis-Bio) at 50 nM, 1 nM and 12.5 nM, respectively. After 2 hours, the ratio of 665 nm to 615 nm emission with 320 nm excitation was measured on an Envision plate reader (Perkin Elmer).
The final reaction volume was 20 μl in a ProxiPlate-384F Plus (Perkin Elmer), in buffer containing 20 mM HEPES, 150 mM NaCl, 1 mM MgCl2, 0.1% BSA, 0.03% Tween-20 and 1 mM DTT. […] HTRF data are presented below in Table 2.
Target sequence in this assay (P01116 2-188 isoform P01116-2 G12C): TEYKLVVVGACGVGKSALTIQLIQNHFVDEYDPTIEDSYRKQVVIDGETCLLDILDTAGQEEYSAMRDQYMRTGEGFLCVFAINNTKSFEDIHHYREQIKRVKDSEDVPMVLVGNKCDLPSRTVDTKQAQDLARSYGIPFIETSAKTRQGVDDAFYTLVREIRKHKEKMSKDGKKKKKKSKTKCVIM

Assay [2] concerns the target T1, K-Ras G12C. In words: Western blot assay for in cell alkylation of K-Ras G12C (HCC1171 cells). It counts as cell-based. Set-up: endogenous in cells; host or cells: HCC1171. Conditions: 18 hours at 37° C., 7 point dose response. As for the experimental part: Western Blot Assay for in Cell Alkylation of K-Ras G12C
HCC1171 cells were maintained in RPMI1640 supplemented with 10% FBS. Cells were plated in a 96-well plate at 20,000 cells/well and the following day compounds were added to the cells. After 18 hours at 37° C., cells were lysed in RIPA buffer (Sigma R0278) with 0.5% SDS and protease/phosphatase inhibitor cocktail. After through mixing to enable complete lysis, the lysates were cleared by centrifugation before 20 μl was transferred from each well and combined with loading buffer and reducing agent. After heating for 10 minutes at 95° C., 15 μl of each sample was loaded onto a 4-20% Tris-Glycine gel and electrophoresed at 110V for 165 minutes in SDS-PAGE running buffer. Gels were transferred to a nitrocellulose membrane, blocked for 1 hour and stained overnight at 4° C. with primary antibody against K-Ras (polyclonal Proteintech 12063-1-AP). The membrane was then washed thoroughly and counterstained with anti-rabbit IRDye 800CW (LI-COR 926-32211) for one hour at room temperature. After final washes, the membrane was imaged on a LI-COR Odyssey CLx at medium resolution. Alkylated K-Ras was visible by an electrophoretic shift from unmodified K-Ras. To quantify this affect, the LICOR software was used to draw a rectangle over alkylated and unalkylated bands for each well and measured the total fluorescent intensity (FI) in each of these bands. The following formula was then used to calculate % alkylation: FI(alkylated)/(FI(alkylated)+FI(unalkylated))*100 for each well.
A 7 point dose response curve was used to determine the IC50 for each compound. Cell alkylation data are presented below in Table 2.
Target sequence in this assay (P01116 1-188 isoform P01116-2 G12C): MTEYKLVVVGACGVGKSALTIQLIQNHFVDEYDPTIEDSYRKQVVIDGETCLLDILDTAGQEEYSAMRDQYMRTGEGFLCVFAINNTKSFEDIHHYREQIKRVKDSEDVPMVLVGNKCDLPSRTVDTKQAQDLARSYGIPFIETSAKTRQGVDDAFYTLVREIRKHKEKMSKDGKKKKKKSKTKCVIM
For orientation: In western blotting, separated proteins are transferred to a membrane and probed.

For `C=C(F)C(=O)N1CCN(c2nc(OC[C@@H]3CCCN3C)nc3c2CCC(c2cc(O)cc4ccccc24)C3)CC1CC#N` (mixture of isomers) [Example 61a, 2-(1-(2-fluoroacryloyl)-4-(7-(3-hydroxynaphthalen-1-yl)-2-(((S)-1-methylpyrrolidin-2-yl)methoxy)-5,6,7,8-tetrahydroquinazolin-4-yl)piperazin-2-yl)acetonitrile], at K-Ras G12C [1], the IC50 (in general, the concentration needed to halve the response being measured) was found to be 38 nM. A half-maximal response at K-Ras G12C [2] (EC50) required 16 nM.

Regarding `CN1CCC[C@H]1COc1nc2c(c(N3CCN(C(=O)/C=C/CF)C(CC#N)C3)n1)CCC(c1cc(O)cc3ccccc13)C2` (mixture of isomers) [Example 62a, 2-(1-((E)-4-fluorobut-2-enoyl)-4-(7-(3-hydroxynaphthalen-1-yl)-2-(((S)-1-methylpyrrolidin-2-yl)methoxy)-5,6,7,8-tetrahydroquinazolin-4-yl)piperazin-2-yl)acetonitrile], on K-Ras G12C [1], it took 18 nM to reach half-maximal inhibition (IC50). The midpoint of the response on K-Ras G12C [2], the EC50, lay at 14 nM.

On to `C=CC(=O)N1CCN(c2ncnc3c2C[C@@H](C)[C@@H](c2nc(N)cc(C)c2C(F)(F)F)C3)CC1` (single isomer, unassigned) [Example 1a], for which the IC50 against K-Ras G12C [1] is above 50000 nM. The EC50 (commonly the concentration that produces a half-maximal response) on K-Ras G12C [2] was 10000 nM.

The compound `C=CC(=O)N1CCN(c2ncnc3c2C[C@H](C)[C@H](c2nc(N)cc(C)c2C(F)(F)F)C3)CC1` (single isomer, unassigned) [Example 1b] returned an IC50 against K-Ras G12C [1] above 50000 nM. Besides, on K-Ras G12C [2], the EC50 came to 10000 nM.

`C=CC(=O)N1CCN(c2ncnc3c2CC[C@@H](c2nc(N)cc4ccccc24)C3)CC1` (single isomer, unassigned) [Example 3a] came in with an IC50 against K-Ras G12C [1] above 50000 nM. Besides, the concentration for a half-maximal effect (EC50) at K-Ras G12C [2] was 30000 nM.

As to `C=CC(=O)N1CCN(c2ncnc3c2CC[C@H](c2nc(N)cc4ccccc24)C3)CC1` (single isomer, unassigned) [Example 3b], the IC50 on K-Ras G12C [1] stood at 710 nM. Besides, the concentration for a half-maximal effect (EC50) on K-Ras G12C [2] stood at 5500 nM.

For the compound `C=CC(=O)N1CCN(c2ncnc3c2C[C@H](C)[C@@H](c2cc(CO)ccc2C)C3)CC1` (single isomer, unassigned) [Example 4a], the IC50 against K-Ras G12C [1] was above 50000 nM.

Regarding `C=CC(=O)N1CCN(c2ncnc3c2C[C@@H](C)[C@H](c2cc(CO)ccc2C)C3)CC1` (single isomer, unassigned) [Example 4b], the IC50 against K-Ras G12C [1] is 390 nM. The same compound showed an EC50 at K-Ras G12C [2] of 1300 nM.

At K-Ras G12C [1], `C=CC(=O)N1CCN(c2nc(OC[C@@H]3C[C@@H](F)CN3C)nc3c2C[C@H](C)[C@@H](c2nc(NC)cc(C)c2C(F)(F)F)C3)[C@@H](C)C1` (single isomer, unassigned) [Example 5a] returned an IC50 above 20000 nM.

On K-Ras G12C [1], `C=CC(=O)N1CCN(c2nc(OC[C@@H]3C[C@@H](F)CN3C)nc3c2C[C@@H](C)[C@H](c2nc(NC)cc(C)c2C(F)(F)F)C3)[C@@H](C)C1` (single isomer, unassigned) [Example 5b] yielded an IC50 of 45 nM. This compound also displayed an EC50 on K-Ras G12C [2] of 180 nM.

`C=CC(=O)N1CCN(c2ncnc3c2CC[C@H](c2cccc4c2CCC4)C3)CC1` (single isomer, unassigned) [Example 6a] returned an IC50 against K-Ras G12C [1] of 2300 nM.

On K-Ras G12C [1], `C=CC(=O)N1CCN(c2ncnc3c2CC[C@@H](c2cccc4c2CCC4)C3)CC1` (single isomer, unassigned) [Example 6b] showed an IC50 above 50000 nM.

`C=CC(=O)N1CCN(c2ncnc3c2C[C@H](C)[C@@H](c2nc(N)cc(C)c2C(F)(F)F)C3)CC1` (single isomer, unassigned) [Example 8a] returned an IC50 on K-Ras G12C [1] of 3500 nM.

`C=CC(=O)N1CCN(c2ncnc3c2C[C@@H](C)[C@H](c2nc(N)cc(C)c2C(F)(F)F)C3)CC1` (single isomer, unassigned) [Example 8b] displayed an IC50 against K-Ras G12C [1] of 45 nM. In addition, a half-maximal effect at K-Ras G12C [2] (EC50) was put at 89 nM.

At K-Ras G12C [1], `C=CC(=O)N1CCN(c2ncnc3c2CC[C@H](c2c(C)ccc4c2COC4)C3)CC1` (single isomer, unassigned) [Example 9a] registered an IC50 of 4200 nM.

On K-Ras G12C [1], `C=CC(=O)N1CCN(c2ncnc3c2CC[C@@H](c2c(C)ccc4c2COC4)C3)CC1` (single isomer, unassigned) [Example 9b] registered an IC50 above 50000 nM.

As to `C=CC(=O)N1CCN(c2ncnc3c2CC[C@@H](c2c(C)c(C)cc4[nH]cnc24)C3)CC1` (single isomer, unassigned) [Example 10a], the IC50 against K-Ras G12C [1] came out at 19000 nM.

The compound `C=CC(=O)N1CCN(c2ncnc3c2CC[C@H](c2c(C)c(C)cc4[nH]cnc24)C3)CC1` (single isomer, unassigned) [Example 10b] displayed an IC50 against K-Ras G12C [1] of 270 nM. On K-Ras G12C [2], this compound showed an EC50 of 1000 nM.

In the case of `C=CC(=O)N1CCN(c2nc(OC[C@@H]3CCCN3C)nc3c2C[C@H](C)[C@@H](c2c(C)c(C)cc(N)c2F)C3)[C@@H](C)C1` (single isomer, unassigned) [Example 11a], on K-Ras G12C [1], inhibition was half-maximal at 1300 nM (IC50).

`C=CC(=O)N1CCN(c2nc(OC[C@@H]3CCCN3C)nc3c2C[C@@H](C)[C@H](c2c(C)c(C)cc(N)c2F)C3)[C@@H](C)C1` (single isomer, unassigned) [Example 11b] yielded an IC50 against K-Ras G12C [1] below 10 nM. In addition, the EC50 at K-Ras G12C [2] was determined as 47 nM.

For `C=CC(=O)N1CCN(c2nc(OC[C@@H]3CCCN3C)nc3c2C[C@H](C)[C@@H](c2c(F)c(N)cc(C)c2C(F)(F)F)C3)[C@@H](C)C1` (single isomer, unassigned) [Example 12a], at K-Ras G12C [1], 610 nM corresponded to half-maximal inhibition (IC50). The EC50 at K-Ras G12C [2] came out at 1100 nM.

Consider `C=CC(=O)N1CCN(c2ncnc3c2CC[C@@H](c2c(F)c(N)cc(F)c2C(F)(F)F)C3)CC1` (single isomer, unassigned) [Example 13a], for which, at K-Ras G12C [1], inhibition was half-maximal at 2000 nM (IC50).

For the compound `CNC/C=C/C(=O)N1CCN(c2ncnc3c2C[C@H](C)[C@@H](c2c(C)ccc4[nH]ncc24)C3)CC1` (single isomer, unassigned) [Example 19b], the IC50 on K-Ras G12C [1] is above 30000 nM.

Compound `C=CC(=O)N1CCN(c2nc(OC[C@@H]3C[C@@H](F)CN3C)nc3c2C[C@H](C)[C@@H](c2nc(N)cc(C)c2C2CC2)C3)[C@@H](C)C1` (single isomer, unassigned) [Example 24a] registered an IC50 against K-Ras G12C [1] above 50000 nM.

Compound `C=CC(=O)N1CCN(c2ncnc3c2CC[C@@H](c2c(F)c(N)cc(C)c2C(F)(F)F)C3)CC1` (single isomer, unassigned) [Example 27b] yielded an IC50 against K-Ras G12C [1] of 3000 nM.

At K-Ras G12C [1], `C=CC(=O)N1CCN(c2nc(OC[C@@H]3C[C@H](F)CN3C)nc3c2CC[C@@H](c2cc(O)cc4ccccc24)C3)[C@@H](C)C1` (single isomer, unassigned) [Example 30b] gave an IC50 of 1200 nM.

On to `C=CC(=O)N1CCN(c2ncnc3c2C[C@H](C)[C@@H](c2nc(N)ccc2C(F)(F)F)C3)CC1` (single isomer, unassigned) [Example 42a], for which the 50% inhibitory concentration (IC50) on K-Ras G12C [1] came out at 2700 nM.

In turn, `C=CC(=O)N1CCN(c2ncnc3c2CC[C@@H](c2nc(N)ccc2C(F)(F)F)C3)CC1` (single isomer, unassigned) [Example 46a] displayed an IC50 against K-Ras G12C [1] of 2000 nM.

For `C=C(F)C(=O)N1CCN(c2nc(OC[C@@H]3CCCN3C)nc3c2CCC(c2cccc4ccccc24)C3)CC1CC#N` (single isomer, unassigned) [Example 47b], the IC50 at K-Ras G12C [1] is 1500 nM.

The compound `C=CC(=O)N1CCN(c2nc(OC[C@@H]3COC(=O)N3C)nc3c2CC[C@@H](c2cc(O)cc4ccccc24)C3)[C@@H](C)C1` (single isomer, unassigned) [Example 57b] had an IC50 against K-Ras G12C [1] of 14000 nM.

Compound `C=CC(=O)N1CCN(c2nc(OC[C@@H]3CCCN3C)nc3c2CCCC3)CC1` [Example 45a, 1-[4-[2-[[(2S)-1-methylpyrrolidin-2-yl]methoxy]-5,6,7,8-tetrahydroquinazolin-4-yl]piperazin-1-yl]prop-2-en-1-one] registered an IC50 on K-Ras G12C [1] above 50000 nM.

`C=CC(=O)N1CCN(c2nc(OCc3cn(C)cn3)nc3c2CCC(c2cc(O)cc4ccccc24)C3)[C@@H](C)C1` (stereo partly drawn) [Example 54a, 1-((3S)-4-(7-(3-hydroxynaphthalen-1-yl)-2-((1-methyl-1H-imidazol-4-yl)methoxy)-5,6,7,8-tetrahydroquinazolin-4-yl)-3-methylpiperazin-1-yl)prop-2-en-1-one] had an IC50 on K-Ras G12C [1] of 470 nM.

The values are drawn from patent publication US11760744B2, “Fused ring compounds” (Genentech, Inc., priority 2018, dated 2023).
